Data on two compounds can be found in patent US20040053898A1, “Combination preparation with a erbeta selective estrogen and serm or antiestorgen” (priority 2000, published 2004).

In test [1] the test system is human estrogen receptor α (ERα) / human estrogen receptor β (ERβ). Kind of test: binding to human estrogen receptors α and β. Particulars: human ERα than human ERβ.
In test [2] the test system is estrogen receptor preparations of rat prostates and rat uteri. Kind of test: estrogen receptor binding, 3H-estradiol competition, rat prostate versus rat uterus cytosol. The note with it: rat prostate ER versus rat uterus ER.
Experimental: The binding affinity of the new selective estrogens (ERβ-ligands) and SERMs was tested in competitive experiments with use of 3H-estradiol as a ligand in estrogen receptor preparations of rat prostates and rat uteri.
A further test deals with ERβ compared to ERα. The note with it: in-vitro receptor binding test; cited from earlier work.

Consider `C[C@]12CC[C@@H]3c4ccc(O)cc4CC[C@H]3[C@@H]1C[C@@H](O)C2=O` [16α-hydroxyestrone], for which the “binding to human ERα relative to human ERβ (fold better)” value in test [1] is given as 3 ×. Besides, the “RBA value in rat prostate estrogen receptor relative to RBA value in rat uterus estrogen receptor (fold better)” value in test [2] is 5 ×.
For the compound `O=c1c(-c2ccc(O)cc2)coc2cc(O)cc(O)c12` [genisteine], in the test with ERβ compared to ERα, the “preference for ERβ compared to ERα” value is given as “ERβ-selectivity”.
